{
  "source": "patent US11039992B2",
  "about": "“Stable redox compositions and methods of use” (Reoxcyn, LLC, priority 2017, dated 2021)",
  "origin": "cited, not measured here",
  "conditions": "pH-neutral aqueous solution (pH around 7.0) at room temperature",
  "data": [
    {"smiles": "O=[O+][O-]", "note": "[ozone]", "values": [
      {"measurement": "half-life", "value": "about 20 minutes"}
    ]}
  ]
}
